{"source": "paper PMC12247024", "about": "“PCFT‐Independent Cellular Uptake of Cyclic Cell‐Penetrating Peptide‐Conjugated Folic Acid” (Chembiochem, 2025)", "key": {"[1]": {"experiment": "RP‐HPLC ACN elution (relative hydrophobicity)", "format": "physicochemical", "details": "PFP column, water/acetonitrile gradient 5%–95% with 0.1% TFA, detection 220 nm, used by the paper as measure of overall hydrophobicity", "text": "Peptides were purified using a reverse‐phase high‐performance liquid chromatography (RP‐HPLC) system, Agilent Technologies (Santa Clara, CA, USA), with water and acetonitrile gradient (5%–95%), containing 0.1% TFA as the mobile phase. Pentafluorophenyl (PFP) column was used as the stationary phase, and samples were detected at the absorbance of 220 nm. Electronic spray ionization‐mass spectrometry (ESI‐MS) was used to determine the molecular weights of the synthesized peptides. Mass spectrometry data were provided by the AIMS Mass Spectrometry Laboratory at the University of Toronto. The peptide conjugates were characterized by electrospray ionization mass spectrometry (ESI‐MS) with agreement between the predicted and experimental molecular weights (Table 1). The peptides, cTAT‐folic acid conjugates, and fluorescein‐labeled conjugates were assessed for the peptide purity by analytical RP‐HPLC system (Figure S6–S11, Supporting Information). The broader peaks, peak splitting, and lower signaling intensity of cyclic peptide and their conjugates in the chromatograms are due to the limited interactions of the peptides with the HPLC columns. The appearance of double peaks for TAMRA conjugated linear and cyclic peptides and of folic acid is likely due to the use of 5‐ and 6‐TAMRA isomer, since isomeric dye conjugated molecules tend to show multiple peaks in RP‐HPLC.^[ [23] ^] […] The bioconjugation of folic acid with cTAT increased the overall hydrophobicity of the cyclic peptide (%ACN elution change from 24% to 34% for cTAT and cTAT‐folic acid respectively), and the ACN elution profile of the conjugates was similar to that of folic acid (Table 1)."}, "[2]": {"system": "DHFR activity in Caco‐2 cell lysates", "experiment": "DHFR assay in lysates of treated cells", "format": "cell-based", "details": "for DHFR activity in cell lysates: Caco‐2 treated at acidic pH for 4 h, NADPH absorbance 340 nm, mean, n = 3", "procedure": "DHFR kit was purchased from Millipore Sigma and was used to analyze DHFR activity, according to manufacturer's protocol. DHFR enzyme catalyzes the reduction of dihydrofolic acid to tetrahydrofolic acid, which is reversible and NADPH‐dependent reaction.\nDihydrofolic acid + NADPH + H^+ ↔ Tetrahydrofolic acid + NADP^+\nBriefly, 20 μM NADPH, 15 μM DHF, 5 μM DHFR, 50 mM Tris (pH 7.5), and 2 mg mL^−1 of cell lysates from Caco‐2 samples treated with 4.5 μM of cTAT‐folic acid conjugates and 20 μM folic acid were added to obtain final volume of 100 μL. DHFR activity at room temperature was monitored by continuously measuring the drop in NADPH concentration, by taking the absorbance at 340 nm for up to 2.5 min.\nFigure 3 DHFR activity in units/mg of protein in Caco‐2 cells lysates, performed 4‐h post‐treatment. A) Cotreatment of cells with folic acid, cTAT‐folic acid conjugates, and myricetin and B) treatment of cell lysates with methotrexate (MTX). The values are mean ± standard error for n = 3, *p < 0.01. Units per mg indicate DHFR activity per mg of protein in the sample, where total protein content (mg) in each sample was measured by BCA assay."}, "[3]": {"system": "IL‐1β and IFN‐β production in HD‐11 cells", "experiment": "Cytokine release (ELISA) upon IBDV infection", "format": "cell-based, chicken", "details": "HD‐11, IBDV at TCID50 for 1 h, then folic acid 20 μM or cTAT‐folic acid 4.5 μM, n = 3, p < 0.01", "procedure": "A modified live IBDV vaccine, UNIVAX‐BDmild strain (ST12) from MSD Animal Health, was reconstituted with10 mL of PBS, and 500 μL aliquots were stored at −80 °C, according to previously reported procedures.^[ [25] ^] An aliquot of the vaccine was added to a tissue culture‐treated T‐25 flask containing confluent HD‐11 cells, and the flask was incubated at 37 °C with 5% CO2 for 1 h to reproduce the virus and to obtain multiplicity of infection (MOI = 1). Following this, 5 mL of media was added, and the cells were incubated for 72 h under the same conditions. After that, the supernatant was extracted, centrifuged for 10 min at 1000 × g, and 500 μL aliquots were taken out and kept at −80 °C to evaluate 50% tissue culture infective‐dose assay (TCID50) in HD‐11. […] The plate was incubated at 37 °C with 5% CO2 for 4 h, and TCID50 was evaluated by MTS assay, as described above.\nHD‐11 and RAW 264.7 cells were cultured in folic acid free RPMI containing 10% FBS and 1% penicillin–[…] solution. […] After 24 h of incubation, cell culture supernatant were collected, and production of chicken IL‐1β and IFN‐β cytokines in HD‐11 was evaluated in triplicate by ELISA kits purchased from Genorise Scientific Inc. (Berwyn, PA 19 312, United States). The production of mouse IL‐1β, TNF‐α and IL‐10 was quantified in RAW 264.7 cells in triplicates by ELISA assay. […]"}, "[4]": {"system": "IL‐1β, TNF‐α and IL‐10 production in RAW 264.7 cells", "experiment": "Cytokine release (ELISA) upon LPS challenge", "format": "cell-based, mouse", "details": "RAW264.7, LPS for 1 h, then folic acid 20 μM or cTAT‐folic acid 4.5 μM, n = 3, p < 0.01", "procedure": "HD‐11 and RAW 264.7 cells were cultured in folic acid free RPMI containing 10% FBS and 1% penicillin–[…] solution. Cytokine release profile from HD‐11 chicken macrophage cells and RAW 264.7 […] macrophage cells was studied by treating cells in growth phase (≈70% confluency) with 1 μg mL^−1 LPS or with IBDV at TCID50 for 1 h, followed by the addition of folic acid (20 μM) and cTAT‐folic acid conjugates (4.5 μM) in serum‐free, folic acid‐negative RPMI‐1640 medium. After 24 h of incubation, cell culture supernatant were collected, and production of chicken IL‐1β and IFN‐β cytokines in HD‐11 was evaluated in triplicate by ELISA kits purchased from Genorise Scientific Inc. (Berwyn, PA 19 312, United States). The production of mouse IL‐1β, TNF‐α and IL‐10 was quantified in RAW 264.7 cells in triplicates by ELISA assay.\nFigure 4 ELISA assay showing A) cytokine expression in HD‐11 cells upon IBDV infection for 1 h, followed by the treatment with folic acid (20 μM) and cTAT‐folic acid conjugates (4.5 μM), and B) cytokine expression (IL‐1β, IL‐10, and TNF‐α) upon LPS (0.5 μg mL^−1) challenge of RAW 264.7 for 1 h, followed by the treatment with folic acid (20 μM) and cTAT‐folic acid conjugates (4.5 μM) for 4 h. The values are mean ± standard error for n = 3, *p < 0.01 and **p < 0.05."}, "[5]": {"system": "HD‐11 cells", "experiment": "Cellular uptake of fluorophore‐labeled linear and cyclic peptides", "format": "cell-based, chicken", "details": "HD‐11, fluorophore‐labeled peptides, fluorescence microscopy and cell lysates by microplate reader", "procedure": "(§1) Caco‐2 and HD‐11 cells were then seeded in six‐well plates at a density of 2.0 × 10^5 cells per well, in 2 mL of RPMI no folic acid medium. After overnight incubation, the cells were further incubated for 4 h with fluorescent folic acid and with cTAT‐folic acid‐FL conjugates (4.5 μM) at 37 °C in a humidified atmosphere containing 5% CO2. The cells were washed with PBS, and relative fluorescence of the samples was analyzed with the microplate reader using excitation wavelength of 490 nm and emission wavelength of 520 nm.\n(§2) Compared with the linear peptides, cyclic analogs are well documented for enhanced physiological stability and resistance to enzymatic degradation.^[ [20], [21], [22] ^]"}, "[6]": {"system": "T1, trypsin", "T1 construct": "purchased Sigma Aldrich / VWR Life Sciences", "experiment": "Trypsin treatment, intact peptide by HPLC", "format": "in vitro ADME", "details": "isolated enzyme trypsin", "text": "as §2"}, "[7]": {"system": "Caco‐2 cells", "experiment": "Cellular uptake of fluorophore‐labeled linear and cyclic peptides", "format": "cell-based", "details": "Caco‐2, fluorophore‐labeled peptides, fluorescence microscopy and cell lysates by microplate reader", "procedure": "as §1, §2"}, "[8]": {"experiment": "Trypsin treatment, intact peptide by HPLC", "format": "in vitro ADME", "details": "isolated enzyme trypsin, trypsin, HPLC chromatogram analysis, read-out: intact peptide after trypsin treatment", "text": "as §2"}, "[9]": {"system": "PCFT expression in Caco‐2 cells", "experiment": "WB analysis of PCFT/GAPDH expression", "format": "cell-based", "details": "Caco‐2, 50 μM, p < 0.01", "procedure": "Caco‐2 cells were seeded in six well culture plate at 1 × 10^6 cells per well in RPMI 1640 folic acid negative medium for 24 h followed by the addition of folic acid, cTAT, and cTAT‐folic acid conjugates (0.1–200 μM) for 4 h. 0.5 mL of pre‐chilled RIPA lysis buffer at 4 °C was added to Caco‐2 cells in six‐well plate. The cell samples were scraped and centrifuged at 14 000 × g to remove cellular debris. The amount of protein in cell lysate was measured by using BCA assay. The protein samples (25 μg) were loaded directly onto 12% Tris·HCl polyacrylamide gels using 6X SDS loading buffer (1:1) containing DTT, and gel was run for 1 h at 110 V. After SDS‐PAGE, proteins were transferred to nitrocellulose membrane for 80 min at 110 V (Bio‐rad, Hercules, California, USA). […] Figure 2 PCFT/GAPDH expression in Caco‐2 cells was measured by the WBs as a function of concentration of, A) folic acid, B) cTAT‐folic acid conjugates, and C) comparison of cTAT‐folic acid conjugates (4.5 μM) with unconjugated cTAT + folic acid (4.5 μM).The experiments were replicated twice in triplicates (n = 3) and upon 4 h post‐treatment. […]"}, "[10]": {"system": "Caco‐2 cells", "experiment": "Cellular uptake of fluorescein‐labeled folic acid and conjugates", "format": "cell-based", "details": "Caco‐2, 4.5 μM", "procedure": "as §1\nThe cellular uptake of fluorophore‐labeled folic acid (folic acid‐FL) and cTAT‐folic acid conjugates (cTAT‐folic acid‐FL) was studied at 4.5 μM concentration in Caco‐2 cells, at the physiological and acidic pH.\nFigure 1 Cellular uptake of fluorescein‐labeled folic acid and cTAT‐folic acid conjugates (4.5 μM) in Caco‐2 cells in the presence and absence of inhibitors at A) acidic and B) physiological pH. C) WB analysis of PCFT/GAPDH expression in Caco‐2 cells in the presence of 50 μM myricetin. The experiments were replicated in triplicates (n = 3). The values are mean ± standard error for n = 3, *p < 0.01."}, "[11]": {"details": "folic acid 20 μM, cTAT‐folic acid 4.5 μM"}}, "note": "Positions of bridges follow the written chain, without caps; N, C: chain ends. Residues, ends and D or L forms follow the SMILES beside them."}
{"molecule": "Nc1nc(=O)c2nc(CNc3ccc(C(=O)N[C@@H](CCC(=O)O)C(=O)O)cc3)cnc2[nH]1", "note": "[Folic acid]", "values": [{"measurement": "ACN elution [%]", "setting": "[1]", "value": 34.06, "unit": "%"}, {"measurement": "DHFR activity in cell lysates, cotreatment with myricetin", "setting": "[2]; Caco‐2, acidic pH, 4 h, folic acid 20 μM, cTAT‐folic acid 4.5 μM, plus myricetin", "value": "10 units mg^−1 of protein"}, {"measurement": "DHFR activity in MTX‐treated cell lysates", "setting": "[2]; Caco‐2 lysates plus methotrexate 100 μM", "value": "negligible DHFR activity"}, {"measurement": "DHFR activity in cell lysates", "setting": "[2]; [11]", "value": "59 units mg^−1 of protein"}, {"measurement": "production of proinflammatory cytokines in challenged macrophages", "setting": "[3]", "value": "reduced the production of proinflammatory cytokines"}, {"measurement": "production of proinflammatory cytokines in challenged macrophages", "setting": "[4]", "value": "reduced the production of proinflammatory cytokines"}]}
{"molecule": "N=C(N)NCCC[C@@H]1NC(=O)[C@H](CCCCN)NC(=O)[C@H](CCCCN)NC(=O)[C@H](CCCNC(=N)N)NC(=O)[C@H](CCCNC(=N)N)NC(=O)[C@H](CCC(N)=O)NC(=O)[C@H](CCCNC(=N)N)NC(=O)[C@H](CCCNC(=N)N)NC(=O)[C@H](CCCNC(=N)N)NC(=O)[C@@H](N)CCCCNC(=O)CC[C@@H](C(N)=O)NC(=O)[C@H](Cc2ccc(O)cc2)NC(=O)CNC1=O", "note": "[cTAT] (H-KRRRQRRKKRGYE-NH2; lactam 1-13)", "values": [{"measurement": "cellular uptake, cyclic versus linear peptide", "setting": "[5]", "value": "significantly higher cellular uptake"}, {"measurement": "ACN elution [%]", "setting": "[1]", "value": 24, "unit": "%"}, {"measurement": "DHFR activity in cell lysates", "setting": "[2]; [11]", "value": "no significant DHFR activity"}, {"measurement": "remaining at 1 h", "setting": "[6]", "value": 49, "unit": "%"}, {"measurement": "remaining at 20 h", "setting": "[6]", "value": 27, "unit": "%"}, {"measurement": "cellular uptake, cyclic versus linear peptide", "setting": "[7]", "value": "significantly higher cellular uptake"}]}
{"molecule": "N=C(N)NCCC[C@H](NC(=O)[C@H](CCCCN)NC(=O)[C@H](CCCCN)NC(=O)[C@H](CCCNC(=N)N)NC(=O)[C@H](CCCNC(=N)N)NC(=O)[C@H](CCC(N)=O)NC(=O)[C@H](CCCNC(=N)N)NC(=O)[C@H](CCCNC(=N)N)NC(=O)[C@H](CCCNC(=N)N)NC(=O)[C@@H](N)CCCCN)C(=O)NCC(=O)N[C@@H](Cc1ccc(O)cc1)C(=O)N[C@@H](CCC(=O)O)C(N)=O", "note": "[linear peptide] (H-KRRRQRRKKRGYE-NH2; N-terminus assumed)", "values": [{"measurement": "cellular uptake, cyclic versus linear peptide", "setting": "[5]", "value": "lower uptake at all studied time points"}, {"measurement": "remaining at 1 h", "setting": "[8]; 1 h incubation", "value": 36, "unit": "%"}, {"measurement": "remaining at 20 h", "setting": "[8]; 20 h post‐treatment", "value": 15, "unit": "%"}, {"measurement": "cellular uptake, cyclic versus linear peptide", "setting": "[7]", "value": "lower uptake at all studied time points"}]}
{"molecule": "O=c1c(O)c(-c2cc(O)c(O)c(O)c2)oc2cc(O)cc(O)c12", "note": "[myricetin]", "values": [{"measurement": "PCFT expression compared with the untreated cells", "setting": "[9]", "value": "significantly downregulated"}]}
{"molecule": "CONH2‐c[EYGRKKRRQRRRK]C(FL)‐NH‐folic acid (sidechain bridge or staple) [cTAT‐folic acid‐FL, fluorescein‐labeled cTAT‐folic acid conjugate, fluorescein on an inserted Cys]", "values": [{"measurement": "ACN elution [%]", "setting": "[1]", "value": 29.86, "unit": "%"}, {"measurement": "difference in cellular uptake between acidic and physiological pH", "setting": "[10]", "value": "no significant difference"}, {"measurement": "cellular uptake upon ethanol treatment of the cells", "setting": "[10]; physiological and acidic pH", "value": "only partially inhibited"}]}
